In US20240091318A1, “COMBINATION THERAPY COMPRISING LONG ACTING GLP-1/GLUCAGON AND NPY2 RECEPTOR AGONISTS” (Boehringer Ingelheim International GmbH, priority 2022, published 2024):
Numbered stars: 1 amine (or outer) side, 2 acyl side, 3 side chain; on linkers, the order of the positions; unused ones are H or OH. Side chains are listed from the residue outwards. * marks the point of attachment. C18 diacid = O=C(O)CCCCCCCCCCCCCCCCC(=O)*; γGlu = O=C(O)[C@H](CCC(=O)[*:2])N[*:1]; Isovaleryl = CC(C)CC(=O)*; AEEA = NCCOCCOCC(=O)O

B1: Compound F (peptide)
peptide: Isovaleryl-APEK([AEEA-AEEA-γGlu-C18 diacid])PEADATPEELQRYYVSLRHYYNWLTRQRY-NH2
SMILES: CC(C)CC(=O)N[C@@H](C)C(=O)N1CCC[C@H]1C(=O)N[C@@H](CCC(=O)O)C(=O)N[C@@H](CCCCNC(=O)COCCOCCNC(=O)COCCOCCNC(=O)CC[C@H](NC(=O)CCCCCCCCCCCCCCCCC(=O)O)C(=O)O)C(=O)N1CCC[C@H]1C(=O)N[C@@H](CCC(=O)O)C(=O)N[C@@H](C)C(=O)N[C@@H](CC(=O)O)C(=O)N[C@@H](C)C(=O)N[C@H](C(=O)N1CCC[C@H]1C(=O)N[C@@H](CCC(=O)O)C(=O)N[C@@H](CCC(=O)O)C(=O)N[C@@H](CC(C)C)C(=O)N[C@@H](CCC(N)=O)C(=O)N[C@@H](CCCNC(=N)N)C(=O)N[C@@H](Cc1ccc(O)cc1)C(=O)N[C@@H](Cc1ccc(O)cc1)C(=O)N[C@H](C(=O)N[C@@H](CO)C(=O)N[C@@H](CC(C)C)C(=O)N[C@@H](CCCNC(=N)N)C(=O)N[C@@H](Cc1c[nH]cn1)C(=O)N[C@@H](Cc1ccc(O)cc1)C(=O)N[C@@H](Cc1ccc(O)cc1)C(=O)N[C@@H](CC(N)=O)C(=O)N[C@@H](Cc1c[nH]c2ccccc12)C(=O)N[C@@H](CC(C)C)C(=O)N[C@H](C(=O)N[C@@H](CCCNC(=N)N)C(=O)N[C@@H](CCC(N)=O)C(=O)N[C@@H](CCCNC(=N)N)C(=O)N[C@@H](Cc1ccc(O)cc1)C(N)=O)[C@@H](C)O)C(C)C)[C@@H](C)O

Tests used:
[1] = Effect on acute food intake (AFI) in normal NMRI mice; assay type: in vivo; conditions: male NMRI mice, 10 nmol/kg s.c. once, % vs. vehicle group
Procedure: Effect on Acute Food Intake in Normal NMRI Mice
Male NMRI mice were obtained from Charles River (Charles River, Research Models & Services Germany GmbH) or from JanVier (JanVier Labs, France) at 5 weeks of age. […] Room temperature was controlled to 21° C.±1° C., with 60%±20% humidity.
Animals were transferred 5-7 days before the start of the study to a real-time food intake monitoring system, HM-2 system (MBRose, Denmark), to allow acclimatization to experimental conditions. As the animals were uniquely identified with microchips, each individual animal was identified by its microchip upon entry and exit from the food channel. Randomization of the mice for each study group (n=7-8) was based on body weight measured the day before the start of the study. A vehicle-treated (50 mM phosphate buffer pH7 with 5% Mannitol) group was included in each experiment. Six hours before the start of the night phase animals were fasted. One hour before the dark phase animals were dosed once subcutaneously (10 nmol/kg) with test peptide. […] The food intake of the treated groups was normalized (in %) to the average food intake of the group receiving vehicle (Table 1). Statistical significance was evaluated using One-way analysis of variance with Turkey's multiple comparison test. P<0.05 was considered statistically significant.

[2] = Effect on body weight loss and food intake in wildtype Diet Induced Obesity (DIO) mice; assay type: in vivo; conditions: 30 nmol/kg s.c. once daily, 5 day
Text: Effect on Body Weight Loss in Wildtype Diet Induced Obesity Mice
Male C57BL6/J pre-fed on 60% high fat diet were obtained from The Jackson Laboratories at >16 weeks of age. Upon arrival of the Diet Induced Obesity (DIO) mice, the mice where single housed to obtain accurate and individual food intake measurements of each animal and assigned an animal number. […] During the entire study animals had ad libitum access to food and water.
Before start of treatment a stratified randomization was performed based on the body weight measured in week −1 prior study start. At study start the age of mice was around 20 weeks. Bodyweight and food intake were measured daily before compound administration. Animals were dosed around one hour before start of the night phase by subcutaneous injection of 30 nmol/kg once daily for 5 till 28 days depending on the experiment. Control animals were dosed by subcutaneous injection daily with vehicle.

human NPY2 receptor = biological target: T1, human NPY2 receptor (human, UniProt P49146); assay: radioligand binding competition (125I-PYY(1-36)) on human NPY2R membranes, filtration
T1 sequence: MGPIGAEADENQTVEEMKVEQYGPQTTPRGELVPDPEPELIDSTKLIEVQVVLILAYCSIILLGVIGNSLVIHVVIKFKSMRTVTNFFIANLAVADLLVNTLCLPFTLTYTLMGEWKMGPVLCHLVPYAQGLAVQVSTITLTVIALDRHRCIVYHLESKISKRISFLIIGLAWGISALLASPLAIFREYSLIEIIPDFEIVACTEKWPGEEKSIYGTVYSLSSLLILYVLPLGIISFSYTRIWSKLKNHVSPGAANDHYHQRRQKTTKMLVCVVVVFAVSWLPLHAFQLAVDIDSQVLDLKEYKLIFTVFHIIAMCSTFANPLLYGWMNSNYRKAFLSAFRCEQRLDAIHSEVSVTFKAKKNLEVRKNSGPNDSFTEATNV
Procedure: The filtration RLB assay was carried out in 96-well plates in a final volume of 100 μl per well. Freeze-dried test peptides were dissolved in 100% dimethyl sulfoxide (DMSO) to stock solutions of 1 mM and serial dilutions were performed in assay buffer (50 mM HEPES, 5 mM MgCl₂, 1 mM CaCl₂, pH 7.4) containing 0.2% ovalbumin. […] Subsequently, 10 μl of human ¹²⁵I-PYY(1-36) (Perkin Elmer) in assay buffer containing 0.2% ovalbumin was added to wells to give a final concentration of 0.02 nM. Next, 80 μL membranes (HTS066M, ChemiSCREEN™ Human Neuropeptide Y2 Receptor Membrane Preparation, CHEMICON) were added to each well to give a final protein concentration of 0.5 μg/well. The plates were sealed and incubated at room temperature for 2 hours in a plate shaker set at 400 rpm. The incubation was stopped by vacuum filtration onto 0.5% poly-ethylene amine (PEI) presoaked GF/C filters using a 96-well FilterMate™ harvester (Perkin Elmer) followed by four washes with 300 μl/well ice-cold wash buffer (50 mM HEPES, 500 mM NaCl, pH7.4). Filter plates were then dried for 60 min at room temperature and the bottom of the plates was sealed with backing tape UniFilter-96. Finally, 50 μl/well scintillation counter cocktail (Microscint20, Packard) was added, and the radioactivity was counted in the Packard TopCount NXT scintillation counter. IC₅₀ values (the half maximal inhibitory concentration of the agonist) were calculated by nonlinear regression analysis of sigmoidal dose-response curves.

Molecule	AFI 10 nmol/kg 24 h (food intake normalized to vehicle group) [1] [%]	BW 30 nmol/kg 5 day (body weight loss vs. vehicle group) [2] [%]	Ki (human NPY2 receptor) [nM]
CC(C)CC(=O)N[C@@H](C)C(=O)N1CCC[C@H]1C(=O)N[C@@H](C)C(=O)N[C@@H](CCCCNC(=O)COCCOCCNC(=O)COCCOCCNC(=O)CC[C@H](NC(=O)CCCCCCCCCCCCCCCCC(=O)O)C(=O)O)C(=O)N1CCC[C@H]1C(=O)N[C@@H](CCC(=O)O)C(=O)N[C@@H](CCC(=O)O)C(=O)N[C@@H](CC(=O)O)C(=O)N[C@@H](C)C(=O)N[C@H](C(=O)N1CCC[C@H]1C(=O)N[C@@H](CCC(=O)O)C(=O)N[C@@H](CCC(=O)O)C(=O)N[C@@H](CC(C)C)C(=O)N[C@@H](CCC(N)=O)C(=O)N[C@@H](CCCNC(=N)N)C(=O)N[C@@H](Cc1ccc(O)cc1)C(=O)N[C@@H](Cc1ccc(O)cc1)C(=O)N[C@H](C(=O)N[C@@H](CO)C(=O)N[C@@H](CC(C)C)C(=O)N[C@@H](CCCNC(=N)N)C(=O)N[C@@H](Cc1c[nH]cn1)C(=O)N[C@@H](Cc1ccc(O)cc1)C(=O)N[C@@H](Cc1ccc(O)cc1)C(=O)N[C@@H](CC(N)=O)C(=O)N[C@@H](Cc1c[nH]c2ccccc12)C(=O)N[C@@H](CC(C)C)C(=O)N[C@H](C(=O)N[C@@H](CCCNC(=N)N)C(=O)N[C@@H](CCC(N)=O)C(=O)N[C@@H](CCCNC(=N)N)C(=O)N[C@@H](Cc1ccc(O)cc1)C(N)=O)[C@@H](C)O)C(C)C)[C@@H](C)O [Compound A, N{alpha-4}-(3-methylbutanoyl)-N{epsilon-7}-[2-(2-{2-[2-(2-{2-[(4S)-4-carboxy-4-(17-carboxyheptadecanamido)butanamido]ethoxy}ethoxy)acetamido]ethoxy}ethoxy)acetamido]-[4A,6A,7K,9E,13T,18Q,22V,28Y,30W,31L]hPYY(4-36)]	39	6.7	
CC[C@H](C)[C@H](NC(=O)[C@H](CCC(=O)O)NC(=O)[C@H](CCC(=O)O)NC(=O)[C@@H]1CCCN1C(=O)[C@H](CO)NC(=O)[C@H](C)NC(=O)[C@H](CC(=O)O)NC(=O)[C@H](C)NC(=O)[C@H](CCC(=O)O)NC(=O)[C@@H]1CCCN1C(=O)[C@H](CCCCNC(=O)COCCOCCNC(=O)COCCOCCNC(=O)CC[C@H](NC(=O)CCCCCCCCCCCCCCCCC(=O)O)C(=O)O)NC(=O)[C@H](CCC(=O)O)NC(=O)[C@@H]1CCCN1C(=O)[C@H](C)NC(=O)CC(C)C)C(=O)N[C@@H](CCC(N)=O)C(=O)N[C@@H](CCCNC(=N)N)C(=O)N[C@@H](Cc1ccc(O)cc1)C(=O)N[C@@H](Cc1ccc(O)cc1)C(=O)N[C@H](C(=O)N[C@@H](CO)C(=O)N[C@@H](CC(C)C)C(=O)N[C@@H](CCCNC(=N)N)C(=O)N[C@@H](Cc1c[nH]cn1)C(=O)N[C@@H](Cc1ccc(O)cc1)C(=O)N[C@@H](Cc1ccc(O)cc1)C(=O)N[C@@H](CC(N)=O)C(=O)N[C@@H](Cc1c[nH]c2ccccc12)C(=O)N[C@@H](CC(C)C)C(=O)N[C@H](C(=O)N[C@@H](CCCNC(=N)N)C(=O)N[C@@H](CCC(N)=O)C(=O)N[C@@H](CCCNC(=N)N)C(=O)N[C@@H](Cc1ccc(O)cc1)C(N)=O)[C@@H](C)O)C(C)C [Compound J, N{alpha-4}-(3-methylbutanoyl)-N{epsilon-7}-[2-(2-{2-[2-(2-{2-[(4S)-4-carboxy-4-(17-carboxyheptadecanamido)butanamido]ethoxy}ethoxy)acetamido]ethoxy}ethoxy)acetamido]-[4A,7K,9E,10A,17I,18Q,22V,28Y,30W,31L]hPYY(4-36)]	29	12.2	
CC[C@H](C)[C@H](NC(=O)[C@H](CCC(=O)O)NC(=O)[C@H](CCC(=O)O)NC(=O)[C@@H]1CCCN1C(=O)[C@@H](NC(=O)[C@H](C)NC(=O)[C@H](CC(=O)O)NC(=O)[C@H](CCC(=O)O)NC(=O)[C@H](CCC(=O)O)NC(=O)[C@@H]1CCCN1C(=O)[C@H](CCCCNC(=O)COCCOCCNC(=O)COCCOCCNC(=O)CC[C@H](NC(=O)CCCCCCCCCCCCCCCCC(=O)O)C(=O)O)NC(=O)[C@H](CCC(=O)O)NC(=O)[C@@H]1CCCN1C(=O)[C@H](C)NC(=O)CC(C)C)[C@@H](C)O)C(=O)N[C@@H](CCC(N)=O)C(=O)N[C@@H](CCCNC(=N)N)C(=O)N[C@@H](Cc1ccc(O)cc1)C(=O)N[C@@H](Cc1ccc(O)cc1)C(=O)N[C@H](C(=O)N[C@@H](CO)C(=O)N[C@@H](CC(C)C)C(=O)N[C@@H](CCCNC(=N)N)C(=O)N[C@@H](Cc1c[nH]cn1)C(=O)N[C@@H](Cc1ccc(O)cc1)C(=O)N[C@@H](Cc1ccc(O)cc1)C(=O)N[C@@H](CC(N)=O)C(=O)N[C@@H](Cc1c[nH]c2ccccc12)C(=O)N[C@@H](CC(C)C)C(=O)N[C@H](C(=O)N[C@@H](CCCNC(=N)N)C(=O)N[C@@H](CCC(N)=O)C(=O)N[C@@H](CCCNC(=N)N)C(=O)N[C@@H](Cc1ccc(O)cc1)C(N)=O)[C@@H](C)O)C(C)C [Compound G, N{alpha-4}-(3-methylbutanoyl)-N{epsilon-7}-[2-(2-{2-[2-(2-{2-[(4S)-4-carboxy-4-(17-carboxyheptadecanamido)butanamido]ethoxy}ethoxy)acetamido]ethoxy}ethoxy)acetamido]-[4A,7K,9E,13T,17I,18Q,22V,28Y,30W,31L]hPYY(4-36)]	44	10.6	
B1			0.31
